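Tested at 5 concentrations; 48 h exposure; 96-well plates; endpoints linearly interpolated, else capped at highest concentration. The concentration for 50% growth inhibition is given as GI50.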 Activity calls are given as the source filed them. Cut-off read from the data, not from the text of the source: active = GI50 up to about 1.1 µM and inactive = higher.
Legend:
Test in all cases: growth of human tumour cells (NCI), 48 h
[1] = system: KM-20L2
[2] = system: SNB-75
[3] = system: HCC 2998
[4] = system: DMS-114
[5] = system: HL-60
[6] = system: M14
[7] = system: ACHN
[8] = system: SK-OV-3
[9] = system: TK-10
[10] = system: SR
[11] = system: CAKI-1
[12] = system: HOP-92
[13] = system: OVCAR-4
[14] = system: SK-MEL-28
[15] = system: 786-0
[16] = system: SNB-19
[17] = system: SNB-78
[18] = system: HCT-116
[19] = system: SN12C
[20] = system: LOX IMVI
[21] = system: KM12
[22] = system: NCI-H226
[23] = system: OVCAR-5
[24] = system: SF-268
[25] = system: K562
[26] = system: U-251
[27] = system: SK-MEL-5
[28] = system: OVCAR-3
[29] = system: SK-MEL-2
[30] = system: A549
[31] = system: UACC-62
[32] = system: Malme-3M
[33] = system: SW-620
[34] = system: RXF 393
[35] = system: MOLT-4
[36] = system: HCT-15
[37] = system: IGROV-1
[38] = system: UO-31
[39] = system: NCI-H23
[40] = system: HOP-62
[41] = system: A498
[42] = system: EKVX
[43] = system: MDA-N
[44] = system: RPMI-8226
[45] = system: PC-3
[46] = system: OVCAR-8
[47] = system: HT-29
[48] = system: COLO 205
[49] = system: BT-549
[50] = system: SF-539
[51] = system: Hs-578T
[52] = system: CCRF-CEM
[53] = system: UACC-257
[54] = system: DU-145
[55] = system: NCI-H522
[56] = system: MDA-MB-435
[57] = system: MCF7
[58] = system: SF-295
[59] = system: NCI-H460
[60] = system: MDA-MB-231
[61] = system: NCI/ADR-RES
[62] = system: T47D

Measured: GI50

COC1CCCCN1C(=O)c1ccccc1 (configuration not stated)
> 25.3 µM: [36]
inactive: [1] > 25.3 µM | [2] > 25.3 µM | [3] > 25.3 µM | [4] > 25.3 µM | [5] > 25.3 µM | [6] > 25.3 µM | [7] > 25.3 µM | [8] > 25.3 µM | [9] > 25.3 µM | [10] > 25.3 µM | [11] > 25.3 µM | [12] > 25.3 µM | [13] > 25.3 µM | [14] > 25.3 µM | [15] > 25.3 µM | [16] > 25.3 µM | [17] > 25.3 µM | [18] > 25.3 µM | [19] > 25.3 µM | [20] > 25.3 µM | [21] > 25.3 µM | [22] > 25.3 µM | [23] > 25.3 µM | [24] > 25.3 µM | [25] > 25.3 µM | [26] > 25.3 µM | [27] > 25.3 µM | [28] > 25.3 µM | [29] > 25.3 µM | [30] > 25.3 µM | [31] > 25.3 µM | [32] > 25.3 µM | [33] > 25.3 µM | [34] > 25.3 µM | [35] > 25.3 µM | [37] > 25.3 µM | [38] > 25.3 µM | [39] > 25.3 µM

CCN(CC)c1c(N(CC)CC)c(=O)c1=O
inactive: [40] 29.9 µM | [2] 30.3 µM | [41] 22.6 µM | [42] 14.9 µM | [3] 20.3 µM | [5] 2.23 µM | [43] 16.3 µM | [6] 16.7 µM | [44] 1.88 µM | [7] 3.18 µM | [8] > 100 µM | [9] 2.82 µM | [10] 24.8 µM | [45] 17.9 µM | [11] 4.27 µM | [46] 10.3 µM | [47] 2.42 µM | [12] 3.94 µM | [48] 2.63 µM | [13] 18.9 µM | [14] 17.4 µM | [15] 5.35 µM | [16] > 63.8 µM | [49] 19.1 µM | [50] 8.05 µM | [51] 21.7 µM | [18] 8.07 µM | [52] 3.53 µM | [19] 9.1 µM | [20] 11.8 µM | [21] 22.6 µM | [22] 17.2 µM | [53] 9.48 µM | [54] 9.31 µM | [23] 18 µM | [55] 2.14 µM | [56] 20.7 µM | [57] 11.2 µM | [58] > 88.9 µM | [24] 26.1 µM | [25] 6.12 µM | [59] 39.5 µM | [26] 22.9 µM | [27] 17.4 µM | [28] 9.71 µM | [29] 22.5 µM | [60] 7.55 µM | [61] 24.4 µM | [30] 22.5 µM | [31] 18.2 µM | [32] 3.25 µM | [33] 4.16 µM | [34] 11.3 µM | [35] 3.1 µM | [62] 3.18 µM | [37] 2.81 µM | [38] 5.32 µM | [39] 10.6 µM
3.67 µM: [36]

CC(C)C[C@H](NC(=O)[C@H](Cc1cccc2ccccc12)NC(=O)N1CCOCC1)B(O)O
< 0.0202 µM: [36]
active: [40] < 0.01 µM | [2] < 0.01 µM | [41] < 0.01 µM | [42] 0.0334 µM | [3] < 0.01 µM | [5] < 0.01 µM | [43] < 0.01 µM | [6] < 0.01 µM | [44] < 0.01 µM | [7] < 0.01 µM | [8] 0.008 µM | [9] < 0.01 µM | [10] < 0.0126 µM | [45] < 0.0108 µM | [11] < 0.0126 µM | [46] < 0.0128 µM | [47] < 0.01 µM | [12] < 0.01 µM | [48] 0.0122 µM | [13] < 0.01 µM | [14] < 0.01 µM | [15] 0.00362 µM | [16] < 0.01 µM | [49] < 0.01 µM | [50] < 0.01 µM | [51] < 0.01 µM | [18] < 0.01 µM | [52] < 0.01 µM | [19] < 0.01 µM | [20] < 0.01 µM | [21] < 0.01 µM | [22] 0.000104 µM | [53] < 0.01 µM | [54] < 0.01 µM | [23] < 0.01 µM | [55] < 0.01 µM | [56] < 0.01 µM | [57] < 0.0444 µM | [58] 0.00348 µM | [24] < 0.01 µM | [25] < 0.01 µM | [59] < 0.012 µM | [26] < 0.01 µM | [27] 0.001 µM | [28] < 0.01 µM | [29] < 0.01 µM | [60] < 0.01 µM | [61] 0.149 µM | [30] < 0.0107 µM | [31] < 0.01 µM | [32] < 0.01 µM | [33] 0.000776 µM | [34] 0.000555 µM | [35] < 0.01 µM | [62] < 0.01 µM | [37] < 0.01 µM | [38] 0.0313 µM | [39] < 0.01 µM
